Data taken from the supplement of paper PMC10920090.

Tests used:
Conditions in all cases: 72 h
MDA-MB-231 [1] = experiment: drug sensitivity score (DSS), cytotoxicity CellTox Green; higher = more cytotoxic; extreme values may be limits of the assay
BT-474 [2] = experiment: drug sensitivity score (DSS), cell viability CellTiter-Glo; higher = more sensitive; extreme values may be limits of the assay
Method: (§1)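 Targeted FIMM drug screen of 23 compounds at 5 concentrations over a 10,000-fold range in 384-well plates, 1250 cells/well, 72 h at 37 °C. Read-outs were CellTiter-Glo viability and CellTox Green cytotoxicity, normalised to DMSO and benzethonium chloride controls and summarised as drug sensitivity score (DSS). Cells stably transduced with shScramble or one of two shPPFIA1 constructs (shPPFIA1_1 TRCN0000002969, shPPFIA1_2 TRCN0000342514).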

UT-SCC-24A [3] = experiment: as above
Method: as §1

MDA-MB-231 [4] = experiment: as above
BT-474 [5] = experiment: drug sensitivity score (DSS), cytotoxicity CellTox Green; higher = more cytotoxic; extreme values may be limits of the assay
Method: as §1

UT-SCC-24A [6] = experiment: as above
Method: as §1

Row | SMILES | drug sensitivity score (MDA-MB-231 [1]; shRNA: shPPFIA1_1) [DSS] | drug sensitivity score (MDA-MB-231 [1]; shRNA: shScramble) [DSS] | drug sensitivity score (BT-474 [2]; shRNA: shPPFIA1_1) [DSS] | drug sensitivity score (BT-474 [2]; shRNA: shPPFIA1_2) [DSS] | drug sensitivity score (BT-474 [2]; shRNA: shScramble) [DSS] | drug sensitivity score (UT-SCC-24A [3]; shRNA: shPPFIA1_1) [DSS] | drug sensitivity score (UT-SCC-24A [3]; shRNA: shPPFIA1_2) [DSS] | drug sensitivity score (UT-SCC-24A [3]; shRNA: shScramble) [DSS] | drug sensitivity score (MDA-MB-231 [4]; shRNA: shPPFIA1_1) [DSS] | drug sensitivity score (MDA-MB-231 [4]; shRNA: shScramble) [DSS] | drug sensitivity score (BT-474 [5]; shRNA: shPPFIA1_1) [DSS] | drug sensitivity score (BT-474 [5]; shRNA: shPPFIA1_2) [DSS] | drug sensitivity score (BT-474 [5]; shRNA: shScramble) [DSS] | drug sensitivity score (UT-SCC-24A [6]; shRNA: shPPFIA1_1) [DSS] | drug sensitivity score (UT-SCC-24A [6]; shRNA: shPPFIA1_2) [DSS] | drug sensitivity score (UT-SCC-24A [6]; shRNA: shScramble) [DSS]
1 | CC(=O)NCC(=O)N1[C@@H]2CC[C@H]1c1ccc(Nc3ncc(C(F)(F)F)c(NC4CCC4)n3)cc12 | 2.8 | 0 | 2.7 | 2.8 | 4.5 | 8 | 8.7 | 8.5 | 5.5 | 21.7 | 3 | 3.7 | 3.5 | 4.1 | 3.9 | 4.3
2 | CC(C)CC(=O)Nc1n[nH]c2c1CN(C(=O)C1CCN(C)CC1)C2(C)C | 3.2 | 0 | 1.2 | 1.3 | 1.5 | 8.1 | 8.5 | 5.8 | 1.8 | 20.1 | 0.9 | 1.1 | 0.4 | 1.9 | 1.4 | 1.2
3 | CCOc1ccn(-c2ccc(F)cc2)c(=O)c1C(=O)Nc1ccc(Oc2ccnc(N)c2Cl)c(F)c1 | 0 | 0.9 | 0 | 0 | 0 | 0 | 0 | 0 | 0 | 21 | 0 | 0 | 0 | 0 | 0 | 0
4 | O=C(Nc1ccc2[nH]nc(-c3ccncc3)c2c1)[C@@H]1CCN(CC(=O)N2CCN(c3ccc(-c4ncccn4)cc3)CC2)C1 | 6 | 10.9 | 0 | 0 | 0 | 21.3 | 20.5 | 17.3 | 2.1 | 10.8 | 0 | 0.2 | 0 | 21.7 | 21.1 | 11.6
5 | CN[C@@H](C)C(=O)N[C@H]1CN(C(=O)CC(C)C)CC[C@H]2CC[C@@H](C(=O)NC(c3ccccc3)c3ccccc3)N2C1=O [AT-406] | 32.3 | 19.8 | 0 | 0 | 0 | 1 | 1.9 | 0 | 17 | 3.4 | 1.3 | 1.4 | 0.2 | 7.8 | 13.5 | 5.3
6 | Cc1cc([C@@H](C)Nc2ccccc2C(=O)O)c2nc(N3CCOCC3)cc(=O)n2c1 [AZD-6482] | 0 | 0.9 | 1.5 | 1.1 | 2.1 | 2.1 | 1.9 | 1.4 | 4.2 | 19.8 | 0.2 | 0.1 | 0.1 | 2 | 1 | 0.8
7 | Cc1cc(C(=O)NOCCO)c(Nc2ccc(I)cc2F)n(C)c1=O [AZD-8330] | 15 | 20.3 | 0 | 0 | 0 | 30 | 27.6 | 23.9 | 5.5 | 21.8 | 0 | 0 | 0 | 28.4 | 27.6 | 14.2
8 | CN(C)C/C=C/C(=O)Nc1cc2c(Nc3ccc(F)c(Cl)c3)ncnc2cc1O[C@H]1CCOC1 [Afatinib] | 0 | 0 | 13.2 | 13.3 | 16.2 | 18.5 | 18.1 | 13.4 | 0.2 | 1.4 | 7.4 | 8.7 | 7.9 | 20.4 | 19.8 | 12
9 | Cn1c(=O)n(-c2ccc(C(C)(C)C#N)cc2)c2c3cc(-c4cnc5ccccc5c4)ccc3ncc21 [Dactolisib] | 0 | 0 | 7.4 | 7.4 | 11 | 16.2 | 17 | 18 | 0 | 4.2 | 0 | 0 | 0 | 1.3 | 0.5 | 2.3
10 | CC(=O)O[C@@]12CO[C@@H]1C[C@H](O)[C@@]1(C)C(=O)[C@H](O)C3=C(C)[C@@H](OC(=O)[C@H](O)[C@@H](NC(=O)OC(C)(C)C)c4ccccc4)C[C@@](O)([C@@H](OC(=O)c4ccccc4)[C@H]21)C3(C)C [Docetaxel] | 7.3 | 8.7 | 16.1 | 16.8 | 20.6 | 17.3 | 18.8 | 18.7 | 1.3 | 16.8 | 20.1 | 20.5 | 20.9 | 16.2 | 15.2 | 20.1
11 | CN[C@@H](C)C(=O)N[C@H](C(=O)N1CCC[C@H]1c1nc(C(=O)c2ccc(F)cc2)cs1)C1CCCCC1 [NVP-LCL161] |  |  | 1 | 1.4 | 0.7 | 4.5 | 5.7 | 4.2 |  |  | 2.4 | 3.3 | 1.3 | 10.2 | 12.8 | 8.1
12 | O=c1ncn2nc(Sc3ccc(F)cc3F)ccc2c1-c1c(Cl)cccc1Cl [VX 745] | 0 | 0 |  |  |  |  |  |  | 0 | 0 |  |  |  |  |  | 
13 | CCCC(CCC)C(=O)O [Valproic acid] | 0 | 0 |  |  |  |  |  |  | 0 | 0 |  |  |  |  |  | 
14 | CCCCC(=O)OCC(=O)[C@]1(O)Cc2c(O)c3c(c(O)c2[C@@H](O[C@H]2C[C@H](NC(=O)C(F)(F)F)[C@H](O)[C@H](C)O2)C1)C(=O)c1c(OC)cccc1C3=O [Valrubicin] | 0 | 0 |  |  |  |  |  |  | 0.8 | 7 |  |  |  |  |  | 
15 | COc1cc2/c(=N/c3ccc(Br)cc3F)nc[nH]c2cc1OCC1CCN(C)CC1 [Vandetanib] | 0 | 2 |  |  |  |  |  |  | 3.6 | 0 |  |  |  |  |  | 
16 | CCc1c(C(=O)C(N)=O)c2c(OCC(=O)O)cccc2n1Cc1ccccc1 [Varespladib] | 0 | 0 |  |  |  |  |  |  | 0 | 0 |  |  |  |  |  | 
17 | Clc1ccc(Nc2nnc(Cc3ccncc3)c3ccccc23)cc1 [Vatalanib] | 0 | 0 |  |  |  |  |  |  | 0 | 0 |  |  |  |  |  | 

Row | SMILES | drug sensitivity score (MDA-MB-231 [1]; shRNA: shPPFIA1_1) [DSS] | drug sensitivity score (MDA-MB-231 [1]; shRNA: shScramble) [DSS] | drug sensitivity score (BT-474 [2]; shRNA: shPPFIA1_1) [DSS] | drug sensitivity score (BT-474 [2]; shRNA: shPPFIA1_2) [DSS] | drug sensitivity score (BT-474 [2]; shRNA: shScramble) [DSS] | drug sensitivity score (UT-SCC-24A [3]; shRNA: shPPFIA1_1) [DSS] | drug sensitivity score (UT-SCC-24A [3]; shRNA: shPPFIA1_2) [DSS] | drug sensitivity score (UT-SCC-24A [3]; shRNA: shScramble) [DSS] | drug sensitivity score (MDA-MB-231 [4]; shRNA: shPPFIA1_1) [DSS] | drug sensitivity score (MDA-MB-231 [4]; shRNA: shScramble) [DSS] | drug sensitivity score (BT-474 [5]; shRNA: shPPFIA1_1) [DSS] | drug sensitivity score (BT-474 [5]; shRNA: shPPFIA1_2) [DSS] | drug sensitivity score (BT-474 [5]; shRNA: shScramble) [DSS] | drug sensitivity score (UT-SCC-24A [6]; shRNA: shPPFIA1_1) [DSS] | drug sensitivity score (UT-SCC-24A [6]; shRNA: shPPFIA1_2) [DSS] | drug sensitivity score (UT-SCC-24A [6]; shRNA: shScramble) [DSS]
18 | C[C@]1(c2nc3c(C(N)=O)cccc3[nH]2)CCCN1 [Veliparib] | 0 | 0 |  |  |  |  |  |  | 0 | 0 |  |  |  |  |  | 
19 | CCCS(=O)(=O)Nc1ccc(F)c(C(=O)c2c[nH]c3ncc(-c4ccc(Cl)cc4)cc23)c1F [Vemurafenib] | 0 | 1.8 |  |  |  |  |  |  | 0 | 0 |  |  |  |  |  | 
20 | CC1(C)CCC(CN2CCN(c3ccc(C(=O)NS(=O)(=O)c4ccc(NCC5CCOCC5)c([N+](=O)[O-])c4)c(Oc4cnc5[nH]ccc5c4)c3)CC2)=C(c2ccc(Cl)cc2)C1 [Venetoclax] | 0 | 0 |  |  |  |  |  |  | 0 | 0 |  |  |  |  |  | 
21 | O=C(/C=C\n1cnc(-c2cc(C(F)(F)F)cc(C(F)(F)F)c2)n1)NNc1ccccn1 [Verdinexor] | 4.4 | 4.2 |  |  |  |  |  |  | 0 | 5.7 |  |  |  |  |  | 
22 | CC[C@]1(O)C[C@@H]2CN(CCc3c([nH]c4ccccc34)[C@@](C(=O)OC)(c3cc4c(cc3OC)N(C)[C@H]3[C@@](O)(C(=O)OC)[C@H](OC(C)=O)[C@]5(CC)C=CCN6CC[C@]43[C@@H]65)C2)C1 [Vinblastine] | 9 | 9.2 |  |  |  |  |  |  | 0 | 9.6 |  |  |  |  |  | 
23 | CC[C@]1(O)C[C@H]2CN(CCc3c([nH]c4ccccc34)[C@@](C(=O)OC)(c3cc4c(cc3OC)N(C=O)[C@H]3[C@@](O)(C(=O)OC)[C@H](OC(C)=O)[C@]5(CC)C=CCN6CC[C@]43[C@@H]65)C2)C1 [Vincristine] | 4.9 | 6 |  |  |  |  |  |  | 0 | 8.1 |  |  |  |  |  | 
24 | CS(=O)(=O)c1ccc(C(=O)Nc2ccc(Cl)c(-c3ccccn3)c2)c(Cl)c1 [Vismodegib] | 2.2 | 0 |  |  |  |  |  |  | 0 | 0 |  |  |  |  |  | 
25 | CC[C@@H]1C(=O)N(C)c2cnc(Nc3ccc(C(=O)N[C@H]4CC[C@H](N5CCN(CC6CC6)CC5)CC4)cc3OC)nc2N1C(C)C [Volasertib] | 0 | 0 |  |  |  |  |  |  | 0 | 6.6 |  |  |  |  |  | 
26 | O=C(CCCCCCC(=O)Nc1ccccc1)NO [Vorinostat] | 6.9 | 2.5 |  |  |  |  |  |  | 2.4 | 6.6 |  |  |  |  |  | 
27 | CCn1c(=O)c(-c2cc[nH]n2)cc2c(C)nc(N)nc21 [Voxtalisib] | 0 | 0.2 |  |  |  |  |  |  | 0.8 | 4.3 |  |  |  |  |  | 
28 | Oc1nc(-c2ccc(C(F)(F)F)cc2)nc2c1CSCC2 [XAV-939] | 1.2 | 0 |  |  |  |  |  |  | 1.6 | 0.5 |  |  |  |  |  | 
29 | O=C(Nc1ccc(-c2ccnc(Nc3ccc(N4CCOCC4)cc3)n2)cc1)C1CCCN1 (stereo not given) [XL019] | 0 | 0 |  |  |  |  |  |  | 0 | 0.6 |  |  |  |  |  | 
30 | COc1cc2c(Nc3ccc(Cl)c(Cl)c3F)ncnc2cc1OC[C@@H]1C[C@@H]2CN(C)C[C@@H]2C1 [XL-647] | 0 | 0 |  |  |  |  |  |  | 0 | 0 |  |  |  |  |  | 
31 | COCC[n+]1c2c(n(Cc3cnccn3)c1C)C(=O)c1ccccc1C2=O [YM155] | 20.5 | 34.6 |  |  |  |  |  |  | 24.1 | 33.4 |  |  |  |  |  | 
32 | FC(F)c1nc2ccccc2n1-c1nc(N2CCOCC2)nc(N2CCOCC2)n1 [ZSTK474] | 0 | 0 |  |  |  |  |  |  | 0.2 | 6.1 |  |  |  |  |  | 
33 | c1ccc(Cn2c(-c3ccc(OC[C@H](C4CCNCC4)n4c(-c5ccccc5)nc5ccccc54)cc3)nc3ccccc32)cc1 [deltarasin] | 9.2 | 7.3 |  |  |  |  |  |  | 5.7 | 7.3 |  |  |  |  |  | 
